Patent publication US12029682B2, “Spray ejector mechanisms and devices providing charge isolation and controllable droplet charge, and low dosage volume ophthalmic administration” (EYENOVIA, INC., priority 2012, dated 2024)
Entries after “also recorded” stand apart in the source; their conditions may differ.

Experiments:
Assay type in all cases: in vivo, beagle dog
glaucomatous beagles [1] = experiment: Intraocular pressure (IOP), TonoVet, in glaucomatous beagles; details: for IOP decrease: 6.0 μl at 0.025% via spray ejector device and 0.005% eyedropper had similar results
glaucomatous beagles [2] = experiment: as above
Experimental: (§1) One glaucomatous beagle dog (female, aged 3 years) from the University of Florida MacKay Colony of Glaucomatous Beagles was chosen for this study. The animal was rested a minimum of one week before starting the study. Prior to the commencement of the study, the animal was assigned one eye to receive 1.5 μl of 0.005% latanoprost and the contralateral eye to remain untreated as a control. The basic measurement protocol was followed at all times and performed by the same operator. PD was measured via Jameson Caliper (mm horizontally). IOP was measured using a TonoVet instrument with clean probe (iCare). IOP and PD were measured at time 0, 1, 2, 4, 7 and 18 hours daily for two days. Immediately after the time 0 measurement, the animal received 1.5 μl of 0.005% latanoprost in its assigned eye with a spray device. The contralateral eye was left untreated. The spray device was checked for accuracy before and after every use, and required a 10% delivered dose accuracy in pretreatment. Standard measurements continued throughout each day at time 1, 2, 4, 7 and 18 hours. Possible endpoints included, but were not limited to, excessive ocular irritation, ocular damage, and other illness or injury. No statistical crossover was utilized for this study.
as §1, with “study.” for “study. The animal was rested a minimum of one week before starting the study.”, “receive 3.0” for “receive 1.5”, “0 measurements,” for “0 measurement,”, “animal was administered 3.0” for “animal received 1.5”, “eye using” for “eye with”, “spray ejector” for “spray”
All animals were rested for a minimum of one week before starting the trials. IOP and pupil diameter (PD) were measured 5 times (at 0, 1, 2, 4, and 7 hours) daily for four days (study days 1-4) to establish initial baseline levels. The basic measurement protocol was followed at all times and performed by the same operator. PD was measured via Jameson Caliper (mm horizontally). IOP was measured with a TonoVet instrument with clean probe (iCare). After three rest days, one eye was randomly assigned to receive 9 μl of 0.005% latanoprost delivered via a spray ejector device, and the contralateral eye was administered traditional latanoprost from a traditional eyedropper container (26-30 μl).
On study days 5-9, IOP and PD measurements were taken at approximately 0900 h (time 0). Immediately after time 0 measurements, each animal received a once-daily dose of 9 μl of generic 0.005% latanoprost in its assigned eye via the spray ejector device. The contralateral eye received a clinical dose (one drop) of the same commercially available topical drug from a traditional eyedropper (positive control). The spray ejector device was checked for accuracy before and after every use and required a 10% delivered dose accuracy in pretreatment. Standard measurements continued throughout each day at 0, 1, 2, 4, and 7 hours. Possible endpoints included, but were not limited to, excessive ocular irritation, ocular damage, and other illness or injury. No statistical crossover was utilized for this study. […]

glaucomatous beagles [3] = experiment: Pupil diameter (PD), Jameson Caliper, in glaucomatous beagles
glaucomatous beagles [4] = experiment: Ocular irritation observations in glaucomatous beagles
Experimental: Active drug delivery begins on study day eight. For five days, IOP and PD measurements are taken at 0900. Immediately after 0900 measurements (time 0), each animal receives 6 μl of generic latanoprost in its assigned eye with the ejector device, followed by a second dosing 3 minutes later of an additional 6 μl (to avoid overloading the conjunctival sac). The contralateral eye receives a clinical dose (one drop) of the same commercially-available topical drug from FDA approved container (positive control). The ejector device is checked for accuracy before and after every use (Table 1). Standard measurements continue throughout each day (at 0:30, 0:45, 1, 2, 7 hrs). Possible endpoints include, but are not limited to, excessive ocular irritation, ocular damage, or other illness and injury. […]
On study days 5-9, IOP and PD measurements were taken at approximately 0900 h (time 0). Immediately after these measurements, each animal received 6 μl of 0.03% bimatoprost in its assigned eye via the spray ejector device. The contralateral eye received a clinical dose (one drop) of the same commercially available topical drug from a traditional eyedropper (positive control). The spray ejector device was checked for accuracy before and after every use and required a 10% delivered dose accuracy in pretreatment. Standard measurements continued throughout each day at 0, 1, 2, 4, and 7 hours. Possible endpoints included, but were not limited to, excessive ocular irritation, ocular damage, and other illness or injury. No statistical crossover was utilized for this study.
Ophthalmic examinations (slit lamp with fluorescein and indirect ophthalmoscopy) were performed on the eyes of each animal prior to Study Day 1. Ocular findings were scored according to the McDonald-Shadduck Score System. Ocular findings were recorded using a standardized data collection sheet. Macroscopic observations were recorded in accordance with the Draize Scale for Scoring Ocular Lesions. Animals were assigned treatments based on basic randomization prior to study day one.
Following a 7 day rest period, the eye choice was reversed. Measurements of IOP, heart rate and pupil diameter (PD) were made at 0:15, 0:30, 0:45, 1, 2, 4, 7, and 18 hours in the primary and crossover study. A veterinary ophthalmologist evaluated each test subject before and after the study for evidence of ocular side effects.
Ophthalmic examinations (slit lamp with fluorescein and indirect ophthalmoscopy) were performed on the eyes of each animal prior to study day 1. Ocular findings were scored according to the McDonald-Shadduck score system and macroscopic observations were recorded in accordance with the Draize scale for scoring ocular lesions. Ocular findings were recorded using a standardized data collection sheet.

[5] = 1.5 μl of 0.005% once daily, spray ejector device, one dog, by hour 2
[6] = 3.0 μl of 0.005% once daily, spray ejector device, one dog, by hour 2
[7] = 12 μl of 0.005% BID via spray ejector device

CC(C)OC(=O)CCC/C=C\C[C@@H]1[C@@H](CC[C@@H](O)CCc2ccccc2)[C@H](O)C[C@@H]1O [latanoprost]
duration of action vs spray ejector device (glaucomatous beagles [1]; 0.005%, one drop (26-30 μl) by eyedropper): greater | maximum decrease in IOP from the initial value (glaucomatous beagles [1]; [5]): 16 mmHg | IOP in the treated eye (glaucomatous beagles [1]; [6]): 19 mmHg | effectiveness at lowering IOP and constricting the pupil vs traditional eyedropper therapy (glaucomatous beagles [1]; 3.0 μl of 0.005% via spray ejector device): as effective at lowering IOP and constricting the pupil as traditional eyedropper therapy | IOP values vs baseline (glaucomatous beagles [1]; 9 μl of 0.005% once daily via spray ejector device): significantly lower than baseline | average daily change / average fluctuation in IOP (maximum minus minimum) (glaucomatous beagles [1]; [7]): 7.6 mmHg | average fluctuation in IOP (glaucomatous beagles [1]; [7]): 30% | morning IOP spike compared to eyedropper delivery (glaucomatous beagles [1]; [7]): consistently prevented the anticipated morning IOP spike | maximum IOP (glaucomatous beagles [1]; 12 μl of 0.005% BID via spray ejector device, day 8): 17.2±3.0 mmHg | minimum IOP (glaucomatous beagles [1]; 12 μl of 0.005% BID via spray ejector device, day 8, hour 7): 13.6±1.2 mmHg | maximum IOP (glaucomatous beagles [1]; 12 μl of 0.005% BID via spray ejector device, day 9): 26.2±6.3 mmHg | minimum IOP (glaucomatous beagles [1]; 12 μl of 0.005% BID via spray ejector device, day 9, hour 4): 16.2±1.5 mmHg | maximum IOP (glaucomatous beagles [1]; 12 μl of 0.005% BID via spray ejector device, day 10): 27.5±3.5 mmHg | minimum IOP (glaucomatous beagles [1]; 12 μl of 0.005% BID via spray ejector device, day 10, hour 4): 14.0±1.3 mmHg | maximum IOP (glaucomatous beagles [1]; 12 μl of 0.005% BID via spray ejector device, day 11): 26.5±2.8 mmHg | minimum IOP (glaucomatous beagles [1]; 12 μl of 0.005% BID via spray ejector device, day 11, hour 7): 14.7±0.9 mmHg | effectiveness at lowering/controlling IOP vs traditional eyedropper therapy (glaucomatous beagles [1]; 30 μl of 0.005% once daily via spray ejector device, 2 dogs): as effective at lowering IOP and constricting the pupil as the traditional eyedropper therapy; also recorded: as effective in controlling IOP as traditional eyedropper therapy | duration of action vs eyedropper (glaucomatous beagles [1]; 30 μl of 0.005% via spray ejector device, pilot study): trend toward increased duration of action | IOP: spray ejector device 6.0 μl at 0.025% vs 0.005% eyedropper (glaucomatous beagles [1]; any point in the study (p=0.823)): no significant differences; also recorded: statistically equivalent | IOP decrease (glaucomatous beagles [1]; first day of the study): approximately 45.4 mmHg | maximum decrease in IOP (glaucomatous beagles [1]; one drop of 0.005% by eyedropper, over the 5 days of the study): 27.5 mmHg | IOP decrease (glaucomatous beagles [1]; subsequent days): ~24.7 mmHg | IOP in the treated eye (glaucomatous beagles [2]; [5]): 11 mmHg | effectiveness at lowering IOP and constricting the pupil vs traditional therapy (glaucomatous beagles [2]; 1.5 μl of 0.005% via Whisper MDD): as effective at lowering IOP and constricting the pupil as traditional therapy | time of maximum decrease in IOP (glaucomatous beagles [2]; 3.0 μl of 0.005% once daily, spray ejector device, one dog): hour 7 on day 2 | decrease in IOP from the initial value (glaucomatous beagles [2]; [6]): 12 mmHg | effectiveness at lowering/controlling IOP vs traditional eyedropper therapy (glaucomatous beagles [2]; 9 μl of 0.005% once daily via spray ejector device vs one drop (26-30 μl), 5 days, 7-hour period): as effective at lowering IOP and constricting the pupil as traditional therapy; also recorded: as effective at controlling IOP as traditional eyedropper therapy | maximum decrease in IOP (glaucomatous beagles [2]; 12 μl of 0.005% BID via spray ejector device, study day 7 (first day of instillation)): 28 mmHg | IOP level (glaucomatous beagles [2]; 12 μl of 0.005% BID via spray ejector device, study day 7, hour 7): 15.5±2.2 mmHg | average daily change in IOP (maximum minus minimum) (glaucomatous beagles [2]; one drop of 0.005% by eyedropper): 14.6 mmHg | IOP: ejector device treatment vs traditional treatment (glaucomatous beagles [2]; two 6 μl doses of 0.005% via ejector device vs one drop by eyedropper): no significant differences; also recorded: statistically indistinguishable | duration of PD constriction vs eyedropper (glaucomatous beagles [3]; [7]): remained constricted much longer | PD: spray ejector device 6.0 μl at 0.025% vs 0.005% eyedropper (glaucomatous beagles [3]; any point in the study (p=0.943)): no significant differences | minimum PD (glaucomatous beagles [3]; both treatments (spray ejector device BID, eyedropper), by time 1 hour on most days): pinpoint | PD (glaucomatous beagles [3]; by time 1 hour each day, 6.0 μl at 0.025% spray ejector device and 0.005% eyedropper): 0 mm | ocular irritation, injury, or discomfort (glaucomatous beagles [4]; 0.005%, either treatment (spray ejector device BID, eyedropper)): no significant reports of ocular irritation, injury, or discomfort | excessive eye irritation or other eye issues (glaucomatous beagles [4]; 0.005%, ejector device 12 μl and eyedropper): no reports of excessive eye irritation or other eye issues | irritation (glaucomatous beagles [4]; 6.0 μl at 0.025% spray ejector device and 0.005% eyedropper): Normal irritation caused by prostaglandin analogues was present | irritation vs eyedropper-treated eyes (glaucomatous beagles [4]; 9 μl of 0.005% via spray ejector device): less than that observed in the eyedropper-treated eyes | irritation to the eye with the lower dosage (glaucomatous beagles [4]; [7]): less irritation to the eye | irritation vs eyedropper administration (glaucomatous beagles [4]; five times (5×) concentration (0.025%) via spray ejector device): no more irritation than that occurring following eyedropper administration | conjunctival irritation (glaucomatous beagles [4]; traditional treatment eyes (eyedropper), related to prostaglandin use): Some conjunctival irritation was noted
